Experiments:
Type in all cases: functional, cell-based
THP-1 = test: Cytotoxicity against human THP1 cells after 48 hrs by sulforhodamine B assay; details: THP-1, 48 h
[1] = Cytotoxicity against human HCT15 cells after 48 hrs by sulforhodamine B assay; details: HCT-15, 48 h
HeLa = test: Cytotoxicity against human HeLa cells after 48 hrs by sulforhodamine B assay
A549 = test: Cytotoxicity against human A549 cells after 48 hrs by sulforhodamine B assay; details: A549, 48 h
MCF7 = test: Cytotoxicity against human MCF7 cells after 48 hrs by sulforhodamine B assay; details: MCF7, 48 h
PC-3 = test: Cytotoxicity against human PC3 cells after 48 hrs by sulforhodamine B assay; details: PC-3, 48 h

## C=C1C(=O)O[C@@H]2[C@H]1CC[C@H](C)[C@]1(O)[C@@H](n3cc(CNc4ccc(F)cc4)nn3)CC(=O)[C@@]21C
THP-1
  IC50: 100 µM
[1]
  IC50: 6.5 µM
HeLa
  IC50: 15 µM
A549
  IC50: 100 µM
MCF7
  IC50: 15 µM

## C=C1C(=O)O[C@@H]2[C@H]1CC[C@H](C)[C@]1(O)[C@@H](n3cc(COc4ccc(Br)cc4)nn3)CC(=O)[C@@]21C
THP-1
  IC50: 10 µM
PC-3
  IC50: 4.7 µM
[1]
  IC50: 48 µM
HeLa
  IC50: 6.5 µM
A549
  IC50: 14 µM
MCF7
  IC50: 16 µM

## C=C1C(=O)O[C@@H]2[C@H]1CC[C@H](C)[C@]1(O)[C@@H](n3cc(COc4ccccc4Br)nn3)CC(=O)[C@@]21C
THP-1
  IC50: 19 µM
PC-3
  IC50: 5.6 µM
[1]
  IC50: 12 µM
HeLa
  IC50: 4.8 µM
A549
  IC50: 8.8 µM
MCF7
  IC50: 3.4 µM

## C=C1C(=O)O[C@@H]2[C@H]1CC[C@H](C)[C@]1(O)[C@@H](n3cc(CNn4ccc5cc(Br)ccc54)nn3)CC(=O)[C@@]21C
[1]
  IC50: 26 µM
HeLa
  IC50: 7.2 µM
A549
  IC50: 100 µM
MCF7
  IC50: 4.5 µM

## C=C1C(=O)O[C@@H]2[C@H]1CC[C@H](C)[C@]1(O)[C@@H](n3cc(CNc4ccc(COC(F)(F)F)cc4)nn3)CC(=O)[C@@]21C
[1]
  IC50: 100 µM
HeLa
  IC50: 17 µM
A549
  IC50: 23 µM
MCF7
  IC50: 17 µM

## C=C1C(=O)O[C@@H]2[C@H]1CC[C@H](C)[C@]1(O)[C@@H](n3cc(CCC)nn3)CC(=O)[C@@]21C
PC-3
  IC50: 100 µM
[1]
  IC50: 5.5 µM
HeLa
  IC50: 8.4 µM
A549
  IC50: 12 µM
MCF7
  IC50: 14 µM

## COc1cccc2c1C(=O)c1c(O)c3c(c(O)c1C2=O)C[C@@](O)(C(=O)CO)C[C@@H]3O[C@H]1C[C@H](N)[C@H](O)[C@H](C)O1 [DOXORUBICIN]
MCF7
  IC50: 0.5 µM

## C=C1C(=O)O[C@@H]2[C@H]1CC[C@H](C)[C@]1(O)[C@@H](n3cc(COc4ccc5ccccc5c4)nn3)CC(=O)[C@@]21C
THP-1
  IC50: 25 µM
PC-3
  IC50: 3.6 µM
[1]
  IC50: 20 µM
HeLa
  IC50: 7.3 µM
A549
  IC50: 9 µM
MCF7
  IC50: 24 µM

## C=C1C(=O)O[C@@H]2[C@H]1CC[C@H](C)[C@]1(O)[C@@H](n3cc(COc4ccc(C(C)C)cc4C)nn3)CC(=O)[C@@]21C
THP-1
  IC50: 33 µM
PC-3
  IC50: 7.5 µM
[1]
  IC50: 45 µM
HeLa
  IC50: 6.8 µM
A549
  IC50: 21 µM
MCF7
  IC50: 32 µM

## C=C1C(=O)O[C@@H]2[C@H]1CC[C@H](C)[C@]1(O)[C@@H](n3cc(CNc4ccccc4C)nn3)CC(=O)[C@@]21C
THP-1
  IC50: 17 µM
PC-3
  IC50: 4.6 µM
[1]
  IC50: 8.5 µM
HeLa
  IC50: 3.9 µM
A549
  IC50: 23 µM
MCF7
  IC50: 15 µM

## C=C1C(=O)O[C@@H]2[C@H]1CC[C@H](C)[C@]1(O)[C@@H](n3cc(COc4ccc(Cl)cc4)nn3)CC(=O)[C@@]21C
THP-1
  IC50: 12 µM
PC-3
  IC50: 5.2 µM
[1]
  IC50: 27 µM
HeLa
  IC50: 3.6 µM
A549
  IC50: 4.1 µM
MCF7
  IC50: 7 µM

## C=C1C(=O)O[C@@H]2[C@H]1CC[C@H](C)[C@]1(O)[C@@H](n3cc(CNc4ccccc4OC)nn3)CC(=O)[C@@]21C
THP-1
  IC50: 100 µM
[1]
  IC50: 15 µM
HeLa
  IC50: 28 µM
A549
  IC50: 23 µM
MCF7
  IC50: 28 µM
